# Reference: PMC7434893 (British Journal of Cancer, 2020)
# “Also recorded” adds a separate entry of the source.
# What was measured:
# advanced solid tumours [1] = test: Tumour response by RECIST 1.1; assay type: in vivo, human
# Experimental: Tumour assessments (computed tomography, magnetic resonance imaging, photographs and bone scans, as suitable for tumour type), based on Response Evaluation Criteria in Solid Tumors version 1.1, were performed at screening and subsequently every 8 weeks until disease progression.
# advanced solid tumours [2] = test: Clinical outcome by 2X-121 DRP prediction; assay type: in vivo, human
# Source text: Matching baseline transcriptome and growth inhibition data were available for 61 of the 74 cell lines, and were used to develop a DRP as previously described.[21],[22] Briefly, IC50 values in the 61 cell lines were correlated to gene-expression levels in the same cell lines; 172 genes with a Pearson correlation above 0.25 were retained as potential markers of sensitivity, while 242 genes with a Pearson correlation below −0.25 were retained as potential markers of resistance. The 414 genes were searched in PubMed for known associations to DNA damage response or Wnt/β-catenin pathways. The 111 pathway-associated genes are shown in Supplementary Table 2. Archival biopsies, in the form of formalin-fixed paraffin-embedded blocks and slides, were obtained from patients in the trial. Only those samples that yielded RNA of sufficient quantity and quality were evaluated for gene expression. The expression of the 414 genes in the 2X-121 DRP was analysed via a custom Affymetrix U133_Plus2 microarray according to the manufacturer’s instructions. The 2X-121 DRP was applied in a blinded manner following a prespecified analysis plan. The difference between the means of the genes that were positively correlated and those negatively correlated to response was used as a single prediction score for each patient, after normalisation to a range of 0–100.
# As a first-in-human phase 1 clinical trial, no formal sample-size calculation or hypothesis testing was undertaken. Analysis of biomarker predictions was performed using a 1-sided Pearson correlation test and a 1-sided log-rank test for time-to-event data according to a prespecified analysis plan.
# T47D = test: 8-day growth inhibition; assay type: cell-based; conditions: Breast, 8-day assay
# MDA-MB-231 = test: 8-day growth inhibition; assay type: cell-based; conditions: Breast, MDA-MB-231, 8-day assay
# MDA-MB-468 = test: 8-day growth inhibition; assay type: cell-based; conditions: Breast, MDA-MB-468, 8-day assay
# MCF-7 = test: 8-day growth inhibition; assay type: cell-based; conditions: Breast, MCF-7, 8-day assay
# BT-20 = test: 8-day growth inhibition; assay type: cell-based; conditions: Breast, BT-20, 8-day assay
# DU145 = test: 8-day growth inhibition; assay type: cell-based; conditions: Prostate, DU145, 8-day assay
# A549 = test: 8-day growth inhibition; assay type: cell-based; conditions: NSCLC, A549, 8-day assay
# SF-295 = test: 8-day growth inhibition; assay type: cell-based; conditions: GBM, SF-295, 8-day assay
# C3A = test: 8-day growth inhibition; assay type: cell-based; conditions: HCC, 8-day assay
# SNU-182 = test: 8-day growth inhibition; assay type: cell-based; conditions: HCC, SNU-182, 8-day assay
# HEC-108 = test: 8-day growth inhibition; assay type: cell-based; conditions: Endometrial, HEC-108, 8-day assay
# HEC-50B = test: 8-day growth inhibition; assay type: cell-based; conditions: Endometrial, 8-day assay
# SNG-ll = test: 8-day growth inhibition; assay type: cell-based; conditions: Endometrial, 8-day assay
# HEC-1B = test: 8-day growth inhibition; assay type: cell-based; conditions: Endometrial, 8-day assay
# HEC-88nu = test: 8-day growth inhibition; assay type: cell-based; conditions: Endometrial, 8-day assay
# MFE-296 = test: 8-day growth inhibition; assay type: cell-based; conditions: Endometrial, MFE-296, 8-day assay
# MFE-280 = test: 8-day growth inhibition; assay type: cell-based; conditions: Endometrial, MFE-280, 8-day assay
# HEC-151 = test: 8-day growth inhibition; assay type: cell-based; conditions: Endometrial, HEC-151, 8-day assay
# AN3 CA = test: 8-day growth inhibition; assay type: cell-based; conditions: Endometrial, 8-day assay
# NCI-H209 = test: 8-day growth inhibition; assay type: cell-based; conditions: SCLC, NCI-H209, 8-day assay
# NCI-H146 = test: 8-day growth inhibition; assay type: cell-based; conditions: SCLC, NCI-H146, 8-day assay
# NCI-H524 = test: 8-day growth inhibition; assay type: cell-based; conditions: SCLC, NCI-H524, 8-day assay
# HL-60 = test: 8-day growth inhibition; assay type: cell-based; conditions: Promyelocytic leukemia, HL-60, 8-day assay
# K562 = test: 8-day growth inhibition; assay type: cell-based; conditions: Erythroleukemia from CML patient, K562, 8-day assay
# SR = test: 8-day growth inhibition; assay type: cell-based; conditions: B cell lymphoma, 8-day assay
# RL = test: 8-day growth inhibition; assay type: cell-based; conditions: NHL B cell lymphoma, 8-day assay
# NCI-H929 = test: 8-day growth inhibition; assay type: cell-based; conditions: Myeloma, NCI-H929, 8-day assay
# DB = test: 8-day growth inhibition; assay type: cell-based; conditions: DLBCL (GC), 8-day assay
# HT = test: 8-day growth inhibition; assay type: cell-based; conditions: DLBCL (GC), 8-day assay
# NCEB-1 = test: 8-day growth inhibition; assay type: cell-based; conditions: MCL, NCEB-1, 8-day assay
# KG-1 = test: 8-day growth inhibition; assay type: cell-based; conditions: AML, KG-1, 8-day assay
# [3] = tested on: human colon cancer SW480 cells; conditions: cited from earlier work
# [4] = 6 patients predicted sensitive by 2X-121 DRP (cut-off 50)
# [5] = 7 patients predicted not sensitive by 2X-121 DRP
structure (smiles),measurement,setting,value
O=c1[nH]nc2c3c(cccc13)N=C(CN1Cc3ccccc3C1)N2 [E7449],ORR in patients with germline-mutated BRCA,advanced solid tumours [1]; 1/6,16.7%
same,Objective response rate (ORR),"advanced solid tumours [1]; 2/41, all cohorts",4.9%
same,Patients with BRCA mutations with partial response or stable disease,advanced solid tumours [1]; 3/6,50%
same,"Best overall response of stable disease, patients",advanced solid tumours [1]; 13 of 41 patients,31.7%
same,Median duration of stable disease,advanced solid tumours [1]; 13 patients,162 days
same,Best Overall Response to E7449,"advanced solid tumours [1]; BRCA-mutated patient, platinum naïve, breast",Progressive Disease
same,Best Overall Response to E7449,"advanced solid tumours [1]; BRCA-mutated patient, platinum naïve, pancreas",Stable Disease
same,Best Overall Response to E7449,"advanced solid tumours [1]; BRCA-mutated patient, platinum resistant, breast",Progressive Disease
same,Best Overall Response to E7449,"advanced solid tumours [1]; BRCA-mutated patients, platinum sensitive, ovary (one line per patient)",Stable Disease; also recorded: Partial Response; also recorded: Progressive Disease
same,Patients with durable (>23 weeks) stable disease,advanced solid tumours [1]; of 13 patients with SD,8
same,Patients with a decrease in target lesion size,advanced solid tumours [1]; of the 35 patients evaluated for best overall response,13
same,"Partial responses, patients","advanced solid tumours [1]; ovarian cancer, 1 each in 600-mg and 800-mg cohorts",2
same,Median overall survival,advanced solid tumours [2]; [4],> 800 days
same,Median time to progression,advanced solid tumours [2]; [4],296 days
same,Median overall survival,advanced solid tumours [2]; [5],208 days
same,Median time to progression,advanced solid tumours [2]; [5],155 days
same,IC50,T47D,7800 nM
same,IC50,MDA-MB-231,25000 nM
same,IC50,MDA-MB-468,2500 nM
same,IC50,MCF-7,1900 nM
same,IC50,BT-20,7900 nM
same,IC50,DU145,1800 nM
same,IC50,A549,2200 nM
same,IC50,SF-295,2600 nM
same,IC50,C3A,2540 nM
same,IC50,SNU-182,5400 nM
same,IC50,HEC-108,5970 nM
same,IC50,HEC-50B,3450 nM
same,IC50,SNG-ll,5260 nM
same,IC50,HEC-1B,7270 nM
same,IC50,HEC-88nu,1140 nM
same,IC50,MFE-296,670 nM
same,IC50,MFE-280,770 nM
same,IC50,HEC-151,1440 nM
same,IC50,AN3 CA,1490 nM
same,IC50,NCI-H209,620 nM
same,IC50,NCI-H146,930 nM
same,IC50,NCI-H524,690 nM
same,IC50,HL-60,10300 nM
same,IC50,K562,4300 nM
same,IC50,SR,260 nM
same,IC50,RL,2500 nM
same,IC50,NCI-H929,5200 nM
same,IC50,DB,1600 nM
same,IC50,HT,660 nM
same,IC50,NCEB-1,5300 nM
same,IC50,KG-1,2000 nM
same,Active and total β-catenin,[3],concomitant reduction
same,Axin2 levels,[3],significant increase
